Results on one substance are retold here after US20260049337A1, “A R[…] A[…] OF INHIBITING TUMOR P[…] […] TIME IN TUMOR-BEARING I[…] USE THEREOF” (NANJING VIROTHER BIOPHARMACEUTICAL CO., LTD., priority 2022, published 2026).

Experiment [1] relates to LCN2 expression in CD8+ T cells. In words: CD8+ T cells cultivated with Panc02 supernatant, FACScan for Lcn2. To be noted: 24 h, vs absence of agonist, p<0.001. The experiment is classed as cell-based. How it is done: Panc02 cells were cultivated in DMEM for 48 h, then supernatant was harvested and added into CD8+ T cells for further 24 h cultivation in the presence or absence of GLP1(7-36) or GLP1 analogue (Liraglutide) followed by FACScan for Lcn2 determination (FIG. VI(B)-3B).

Experiment [2] shares this test system. In words: Panc02 cells cocultured with CD8+ T cells, flow cytometry for LCN2. The experiment is classed as cell-based. The settings on record: coculture with Panc02 for 24 h; vs coculture without GLP1(7-36), p<0.01. How it is done:
Panc02 cells were cocultured with CD8+ T cells with or without GLP1(7-36) for 24 h, then T cells were subjected to flow cytometry for determination of LCN2 expression (FIG. 28A).
For orientation: In flow cytometry, cells or beads pass a laser one at a time.

“GLP-1(7-36): GLP-1 receptor agonist peptide, SEQ ID NO: 1, HAEGTFTSDVSSYLEGQAAKEFIAWLVKGR”: the “Lcn2 expression in CD8+ T cells” value in experiment [1] and in experiment [2] was “statistically significantly reduced” each time.
